Data on 27 compounds can be found in patent US8129398B2 (priority 2008, dated 2012).

SMILES strings stand for the structures. pIC50: −log10 of the molar value.

For one assay, the target named is T1, HIV-integrase (Human immunodeficiency virus type 1 group M subtype B, UniProt P12497).
T1 construct: Recombinant integrase (0.26 ng) was incubated with the beads
The experiment in a line: HIV-Integrase Inhibition Activity (SPA bead integration assay with P33 labeled target DNA). It is filed as biochemical. The conditions noted are these: in vitro activity, recombinant integrase, class symbols. The method in brief: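 Strand integration read as bead-proximity CPM after P33 target DNA (0.1 fmol) and inhibitor were added to washed integrase–substrate DNA complexes on SPA beads. Enzyme bound 90 min at 37° C; EDTA (10 mM final) terminated reaction; IC50 graded A/B/C.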
`CC(=O)N[C@H]1c2nc(C(=O)NCc3ccc(F)cc3)c(O)c(=O)n2C[C@H]2CC[C@]1(C)C2(C)C` [Example 184, (7S,10R,11R)-11-(Acetylamino)-N-(4-fluorobenzyl)-3-hydroxy-10,12,12-trimethyl-4-oxo-6,7,8,9,10,11-hexahydro-4H-7,10-methanopyrimido[1,2-a]azocine-2-carboxamide]: the pIC50 is 7.00 to 8.00.

Still in this assay, the particulars now being: recombinant integrase, class symbols; read-out: in vitro activity.
For the compound `CO[C@H]1C[C@@H](C(=O)NC23CCC(CC2)Cn2c3nc(C(=O)NCc3ccc(F)c(C)c3)c(O)c2=O)N(C(=O)c2ccno2)C1` [Example 280, 7,10-Ethanopyrimido[1,2-a]azepine-2-carboxamide, N-[(4-fluoro-3-methylphenyl)methyl]-4,6,7,8,9,10-hexahydro-3-hydroxy-10-[[[(2S,4S)-1-(5-isoxazolylcarbonyl)-4-methoxy-2-pyrrolidinyl]carbonyl]amino]-4-oxo-], the pIC50 was > 8.00. The same measure, in the same setting: the same measure for `CN(C)C(=O)C(=O)NC12CCC(CC1)Cn1c2nc(C(=O)NCCCN2CCCC2=O)c(O)c1=O` [Example 337]: < 7.00; for `O=C(NC12CCC(CC1)Cn1c2nc(C(=O)NCc2ccc(F)cc2)c(O)c1=O)c1ccc(C(F)(F)F)nc1` [Example 323, 7,10-Ethanopyrimido[1,2-a]azepine-2-carboxamide, N-[(4-fluorophenyl)methyl]-4,6,7,8,9,10-hexahydro-3-hydroxy-4-oxo-10-[[[6-(trifluoromethyl)-3-pyridinyl]carbonyl]amino]-]: > 8.00. The same measure, in the same setting: the value for `CN(C)C(=O)N1CCN(C(=O)C(=O)NC23CCC(CC2)Cn2c3nc(C(=O)NCc3ccc(F)cc3)c(O)c2=O)CC1` [Example 80, 10-(((4-(Dimethylcarbamoyl)-1-piperazinyl)(oxo)acetyl)amino)-N-(4-fluorobenzyl)-3-hydroxy-4-oxo-4,6,7,8,9,10-hexahydro-7,10-ethanopyrimido[1,2-a]azepine-2-carboxamide] was > 8.00; that for `CN(C)C(=O)C(=O)NC12CCC(CC1)Cn1c2nc(C(=O)NCCc2ccccc2Cl)c(O)c1=O` [Example 344] was 7.00 to 8.00.

With `CO[C@@H]1C[C@@H](C(=O)NC23CCC(CC2)Cn2c3nc(C(=O)NCc3ccc(F)cc3)c(O)c2=O)N(C(C)=O)C1` [Example 273, 7,10-Ethanopyrimido[1,2-a]azepine-2-carboxamide, 10-[[[(2S,4R)-1-acetyl-4-methoxy-2-pyrrolidinyl]carbonyl]amino]-N-[(4-fluorophenyl)methyl]-4,6,7,8,9,10-hexahydro-3-hydroxy-4-oxo-], the pIC50 is > 8.00. For the compound `Cc1cc(CNC(=O)c2nc3n(c(=O)c2O)CC2CCC3(NC(=O)C(=O)N(C)C)C2)ccc1F` (stereo not drawn) [Example 196, Ethanediamide, N′-[2-[[[(4-fluoro-3-methylphenyl)methyl]amino]carbonyl]-6,7,8,9-tetrahydro-3-hydroxy-4-oxo-7,10-methanopyrimido[1,2-a]azepin-10(4H)-yl]-N,N-dimethyl-], the pIC50 was > 8.00. On the same count and under the same terms, the value for `O=C(NC12CCC(CC1)Cn1c2nc(C(=O)NCc2ccc(F)cc2)c(O)c1=O)C(=O)N1CCN(C(=O)c2ccco2)CC1` [Example 143, N-(4-Fluorobenzyl)-10-(((4-(2-furanylcarbonyl)-1-piperazinyl)(oxo)acetyl)amino)-3-hydroxy-4-oxo-4,6,7,8,9,10-hexahydro-7,10-ethanopyrimido[1,2-a]azepine-2-carboxamide] was > 8.00.

For the compound `CO[C@H]1C[C@@H](C(=O)NC23CCC(CC2)Cn2c3nc(C(=O)NCc3ccc(F)c(C)c3)c(O)c2=O)N(C(=O)c2ncn(C)n2)C1` [Example 299, 7,10-Ethanopyrimido[1,2-a]azepine-2-carboxamide, N-[(4-fluoro-3-methylphenyl)methyl]-4,6,7,8,9,10-hexahydro-3-hydroxy-10-[[[(2S,4S)-4-methoxy-1-[(1-methyl-1H-1,2,4-triazol-3-yl)carbonyl]-2-pyrrolidinyl]carbonyl]amino]-4-oxo-], the pIC50 is > 8.00.

As to `CN(C)C(=O)[C@@H]1CCCN1C(=O)C(=O)NC12CCC(CC1)Cn1c2nc(C(=O)NCc2ccc(F)cc2)c(O)c1=O` [Example 91, 10-((((2S)-2-(Dimethylcarbamoyl)-1-pyrrolidinyl) (oxo)acetyl)amino)-N-(4-fluorobenzyl)-3-hydroxy-4-oxo-4,6,7,8,9,10-hexahydro-7,11-ethanopyrimido[1,2-a]azepine-2-carboxamide], the pIC50 was > 8.00. For the compound `C=C[C@H]1C[C@@]1(NC(C)=O)C(=O)NC12CCC(CC1)Cn1c2nc(C(=O)NCc2ccc(F)c(C)c2)c(O)c1=O` [Example 300, 7,10-Ethanopyrimido[1,2-a]azepine-2-carboxamide, 10-[[[(1S,2R)-1-(acetylamino)-2-ethenylcyclopropyl]carbonyl]amino]-N-[(4-fluoro-3-methylphenyl)methyl]-4,6,7,8,9,10-hexahydro-3-hydroxy-4-oxo-], the pIC50 was > 8.00. The same measure, in the same setting: the value for `CN(C)C(=O)C(=O)NC12CCC(CC1)Cn1c2nc(C(=O)NCc2ccc(S(N)(=O)=O)cc2)c(O)c1=O` [Example 379] was > 8.00; that for `O=C1C[C@@H](C(=O)NC23CCC(CC2)Cn2c3nc(C(=O)NCc3ccc(F)cc3)c(O)c2=O)N1` [Example 264, 7,10-Ethanopyrimido[1,2-a]azepine-2-carboxamide, N-[(4-fluorophenyl)methyl]-4,6,7,8,9,10-hexahydro-3-hydroxy-4-oxo-10-[[[(2S)-4-oxo-2-azetidinyl]carbonyl]amino]-] was > 8.00. On the same count and under the same terms, the value for `CN(C)S(=O)(=O)NC12CCC(CC1)Cn1c2nc(C(=O)NCc2ccc(F)cc2)c(O)c1=O` [Example 40, 10-((Dimethylsulfamoyl)amino)-N-(4-fluorobenzyl)-3-hydroxy-4-oxo-4,6,7,8,9,10-hexahydro-7,10-ethanopyrimido[1,2-a]azepine-2-carboxamide] was > 8.00; that for `CN1CCC[C@@H]1C(=O)NC12CCC(CC1)Cn1c2nc(C(=O)NCc2ccc(F)cc2)c(O)c1=O` [Example 257, 7,10-Ethanopyrimido[1,2-a]azepine-2-carboxamide, N-[(4-fluorophenyl)methyl]-4,6,7,8,9,10-hexahydro-3-hydroxy-10-[[[(2R)-1-methyl-2-pyrrolidinyl]carbonyl]amino]-4-oxo-] was 7.00 to 8.00. Still for that read-out and setting: the value for `COC[C@@H]1CCCN1C(=O)C(=O)NC12CCC(CC1)Cn1c2nc(C(=O)NCc2ccc(F)cc2)c(O)c1=O` [Example 89, N-(4-Fluorobenzyl)-3-hydroxy-10-((((2S)-2-(methoxymethyl)-1-pyrrolidinyl)(oxo)acetyl)amino)-4-oxo-4,6,7,8,9,10-hexahydro-7,10-ethanopyrimido[1,2-a]azepine-2-carboxamide] was > 8.00.

For the compound `CN(C)C(=O)C(=O)NC12CCC(CC1)Cn1c2nc(C(=O)NCc2ccc(F)cc2Cl)c(O)c1=O` [Example 118, N′-(2-((2-Chloro-4-fluorobenzyl)carbamoyl)-3-hydroxy-4-oxo-6,7,8,9-tetrahydro-7,10-ethanopyrimido[1,2-a]azepin-10(4H)-yl)-N,N-dimethylethanediamide], the pIC50 is > 8.00. Turning to `COc1cccc(CNC(=O)c2nc3n(c(=O)c2O)CC2CCC3(NC(=O)C(=O)N(C)C)CC2)c1` [Example 373], the pIC50 was > 8.00. As for `CN(C)C(=O)C(=O)N(C)C12CCC(CC1)Cn1c2nc(C(=O)NCc2ccc(F)c(F)c2)c(O)c1=O` [Example 159, N-(2-((3,4-Difluorobenzyl)carbamoyl)-3-hydroxy-4-oxo-6,7,8,9-tetrahydro-7,10-ethanopyrimido[1,2-a]azepin-10(4H)-yl)-N,N′,N′-trimethylethanediamide], the pIC50 is > 8.00. Same read-out and setting: the same measure for `Cc1c(CN(C)C(=O)C(=O)NC23CCC(CC2)Cn2c3nc(C(=O)NCc3ccc(F)cc3)c(O)c2=O)cnn1C` [Example 95, N-((1,5-Dimethyl-1H-pyrazol-4-yl)methyl)-N′-(2-((4-fluorobenzyl)carbamoyl)-3-hydroxy-4-oxo-6,7,8,9-tetrahydro-7,10-ethanopyrimido[1,2-a]azepin-10(4H)-yl)-N-methylethanediamide]: > 8.00; for `O=C(NCc1ccc(F)cc1)c1nc2n(c(=O)c1O)CC1CCC2(NC(=O)C2CCCN2S(=O)(=O)c2ncn[nH]2)CC1` (stereo not drawn) [Example 409]: > 8.00; for `Cc1oncc1S(=O)(=O)NC12CCC(CC1)Cn1c2nc(C(=O)NCc2ccc(F)cc2)c(O)c1=O` [Example 393]: > 8.00. Still for that read-out and setting: the same measure for `O=C(NC12CCC(CC1)Cn1c2nc(C(=O)NCc2ccc(F)cc2)c(O)c1=O)C(=O)N1CCC[C@H]1CO` [Example 69, N-(4-Fluorobenzyl)-3-hydroxy-10-((((2S)-2-(hydroxymethyl)-1-pyrrolidinyl)(oxo)acetyl)amino)-4-oxo-4,6,7,8,9,10-hexahydro-7,10-ethanopyrimido[1,2-a]azepine-2-carboxamide]: > 8.00; for `CC(=O)N1CCCC1C(=O)NC12CCC(CC1)Cn1c2nc(C(=O)NCc2ccc(F)cc2)c(O)c1=O` (stereo in doubt) [Example 253, 7,10-Ethanopyrimido[1,2-a]azepine-2-carboxamide, 10-[[[(2R)-1-acetyl-2-pyrrolidinyl]carbonyl]amino]-N-[(4-fluorophenyl)methyl]-4,6,7,8,9,10-hexahydro-3-hydroxy-4-oxo-]: 7.00 to 8.00. Same read-out and setting: the value for `CN(C)C(=O)C(=O)NC12CCC(CC1)Cn1c2nc(C(=O)NCc2ccc(F)cc2-c2nncn2C)c(O)c1=O` [Example 109, N′-(2-((4-Fluoro-2-(4-methyl-4H-1,2,4-triazol-3-yl)benzyl)carbamoyl)-3-hydroxy-4-oxo-6,7,8,9-tetrahydro-7,10-ethanopyrimido[1,2-a]azepin-10(4H)-yl)-N,N-dimethylethanediamide] was 7.00 to 8.00; that for `O=C(NC12CCC(CC1)Cn1c2nc(C(=O)NCc2ccc(F)cc2)c(O)c1=O)c1ccnc(N2CCOCC2)c1` [Example 317, 7,10-Ethanopyrimido[1,2-a]azepine-2-carboxamide, N-[(4-fluorophenyl)methyl]-4,6,7,8,9,10-hexahydro-3-hydroxy-10-[[[2-(4-morpholinyl)-4-pyridinyl]carbonyl]amino]-4-oxo-] was > 8.00.
